From US20250332173A1, “COMPOUNDS AND METHODS FOR MODULATING NUCLEIC ACID SPLICING” (REMIX THERAPEUTICS INC., priority 2021, published 2025)
pIC50: −log10 of the molar value.

Tested on: Target C
Test: RT-qPCR splicing assay panel, Target C canonical junction (CJ) mRNA
Type: cell-based, human
Details: Homo sapiens; Table 5 panel; canonical junction qPCR; compound concentration having 50% response in CJ decrease; read-out: Target C IC50 (decrease in CJ mRNA levels)
In short: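 K562/A673 cells, 11-pt 3-fold compound titration from 10 uM final, DMSO ≤0.25%, 24 h 37 °C 5% CO2; lyse (DNase I or Igepal/Tris buffer pH 7.4); RT-qPCR for CJ isoform vs housekeeping gene (GAPDH/GUSB/PPIA).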

Compound | pIC50
Cc1cn2nc(-c3ccc4c(=O)n([C@@H]5CCNC6(CC6)C5)ncc4c3)cc(C)c2n1 (stereo in doubt) [Compound 368, 2-[(7R)-4-azaspiro[2.5]octan-7-yl]-6-{2,8-dimethylimidazo[1,2-b]pyridazin-6-yl}phthalazin-1-one] | 6.00 to 7.00
Cn1cc2cc(-n3cnc4cc(C5=CC6CCC(C5)N6)ccc4c3=O)ccc2n1 (stereo not drawn) [Compound 160] | < 5.00
CN1C2C=C(c3ccc4c(=O)n(-c5ccc6nn(C)cc6c5)cnc4c3)CC1CC2 (stereo not drawn) [Compound 161] | < 5.00
CN1CCC(Nc2ccc3c(=O)n(-c4ccc5nn(C)cc5c4)cnc3c2)CC1 [Compound 163] | < 5.00
Cn1cc2cc(-n3cnc4cc(C5CCNCC5)ccc4c3=O)ccc2n1 [Compound 172] | < 5.00
Cc1cn2cc(-c3cc(N)c4c(=O)n(C5CCNCC5)cnc4c3)cc(C#N)c2n1 [Compound 364, 6-[5-amino-4-oxo-3-(piperidin-4-yl)quinazolin-7-yl]-2-methylimidazo[1,2-a]pyridine-8-carbonitrile] | < 5.00
Cn1cc2c(n1)CCN(c1cc(F)c3c(=O)n(C4CCNCC4)cnc3c1)C2 [Compound 365, 5-fluoro-7-(2-methyl-2,4,6,7-tetrahydro-5H-pyrazolo[4,3-c]pyridin-5-yl)-3-(piperidin-4-yl)quinazolin-4(3H)-one] | < 5.00
Cc1cn2cc(-c3cc(F)c4c(=O)n(C5CCOC5)cnc4c3)cc(C#N)c2n1 (stereo not drawn) [Compound 366, 6-[5-fluoro-4-oxo-3-(oxolan-3-yl)quinazolin-7-yl]-2-methylimidazo[1,2-a]pyridine-8-carbonitrile] | 5.00 to 6.00
Cc1cn2cc(-c3cc(F)c4c(=O)n(C5CCOCC5)cnc4c3)cc(C#N)c2n1 [Compound 367, 6-[5-fluoro-3-(oxan-4-yl)-4-oxoquinazolin-7-yl]-2-methylimidazo[1,2-a]pyridine-8-carbonitrile] | 6.00 to 7.00
Cc1cn2nc(-c3ccc4c(=O)n([C@H]5CCNC6(CC6)C5)ncc4c3)cc(C)c2n1 [Compound 369, 2-[(7S)-4-azaspiro[2.5]octan-7-yl]-6-{2,8-dimethylimidazo[1,2-b]pyridazin-6-yl}phthalazin-1-one] | > 7.00
Cc1cn2cc(-c3cc(F)c4c(=O)n(C5CCNCC5)ccc4c3)cc(F)c2n1 [Compound 370] | 6.00 to 7.00
Cc1cn2nc(-c3ccc4c(=O)n([C@H]5CCNC[C@H]5F)cnc4c3)cc(C)c2n1 [Compound 372] | 5.00 to 6.00
Cc1cc(-c2ccc3c(=O)n(C4CCNC5(COC5)C4)cnc3c2)cc2cn(C)nc12 (stereo not drawn) [Compound 375] | 5.00 to 6.00
Cc1cc(-c2ccc3c(=O)n([C@@H]4CCNC[C@H]4F)ncc3c2)cc2cn(C)nc12 [Compound 378] | 5.00 to 6.00
Cc1cn2nc(-c3ccc4c(=O)n([C@@H]5CCNC[C@H]5F)ncc4c3)cc(C)c2n1 [Compound 379] | 5.00 to 6.00
Cc1cn2nc(-c3cc(F)c4c(=O)n(C5CCNC6(CC6)C5)ccc4c3)cc(C)c2n1 (stereo not drawn) [Compound 380, 6-(2,8-dimethylimidazo[1,2-b]pyridazin-6-yl)-8-fluoro-2-(4-azaspiro[2.5]octan-7-yl)isoquinolin-1(2H)-one] | > 7.00

Next, values leading:

pIC50 | Compound
< 5.00 | Cc1cn2cc(-c3cc(F)c4c(=O)n([C@@H]5CCNC5)ccc4c3)cc(F)c2n1 (single isomer, unassigned) [Compound 395]
< 5.00 | Cc1cn2cc(-c3cc(F)c4c(=O)n([C@H]5CCNC5)ccc4c3)cc(F)c2n1 (single isomer, unassigned) [Compound 396]
5.00 to 6.00 | Cc1cn2cc(-c3ccc4c(=O)n([C@@H]5CCCNC5)ccc4c3)cc(F)c2n1 (single isomer, unassigned) [Compound 403]
> 7.00 | Cc1cn2nc(-c3cc(F)c4c(=O)n([C@@H]5CCNC6(CC6)C5)ccc4c3)cc(C)c2n1 (single isomer, unassigned) [Compound 425]
> 7.00 | Cc1cn2nc(-c3cc(F)c4c(=O)n([C@H]5CCNC6(CC6)C5)ccc4c3)cc(C)c2n1 (single isomer, unassigned) [Compound 426]
< 5.00 | Cc1cn2nc(-c3cc(F)c4c(=O)n(C5CCNC5)ccc4c3)cc(C)c2n1 (stereo in doubt) [Compound 382, (R)-6-(2,8-dimethylimidazo[1,2-b]pyridazin-6-yl)-8-fluoro-2-(pyrrolidin-3-yl)isoquinolin-1(2H)-one]
5.00 to 6.00 | Cc1cn2nc(-c3cc(F)c4c(=O)n(C5CCNC5)ccc4c3)cc(C)c2n1 (stereo in doubt) [Compound 392, (S)-6-(2,8-dimethylimidazo[1,2-b]pyridazin-6-yl)-8-fluoro-2-(pyrrolidin-3-yl)isoquinolin-1(2H)-one]
6.00 to 7.00 | Cc1cn2nc(-c3cc(C)c4c(=O)n(C5CCNC6(CC6)C5)ccc4c3)cc(C)c2n1 (stereo in doubt) [Compound 397, (S)-6-(2,8-dimethylimidazo[1,2-b]pyridazin-6-yl)-8-methyl-2-(4-azaspiro[2.5]octan-7-yl)isoquinolin-1(2H)-one]
> 7.00 | Cc1cn2nc(-c3cc(C)c4c(=O)n(C5CCNC6(CC6)C5)ccc4c3)cc(C)c2n1 (stereo in doubt) [Compound 398, (R)-6-(2,8-dimethylimidazo[1,2-b]pyridazin-6-yl)-8-methyl-2-(4-azaspiro[2.5]octan-7-yl)isoquinolin-1(2H)-one]
< 5.00 | Cc1cn2nc(-c3ccc4c(=O)n(C5CCCNC5)ccc4c3)cc(C)c2n1 (stereo in doubt) [Compound 410, 6-{2,8-dimethylimidazo[1,2-b]pyridazin-6-yl}-2-[(3S)-piperidin-3-yl]isoquinolin-1-one]
< 5.00 | Cc1cn2nc(-c3ccc4c(=O)n(C5CCCNC5)ccc4c3)cc(C)c2n1 (stereo in doubt) [Compound 411, 6-{2,8-dimethylimidazo[1,2-b]pyridazin-6-yl}-2-[(3R)-piperidin-3-yl]isoquinolin-1-one]
6.00 to 7.00 | Cc1cn2cc(-c3cc(F)c4c(=O)n(C5CCOC5)cnc4c3)cc(C#N)c2n1 (stereo in doubt) [Compound 499, (R)-6-(5-fluoro-4-oxo-3-(tetrahydrofuran-3-yl)-3,4-dihydroquinazolin-7-yl)-2-methylimidazo[1,2-a]pyridine-8-carbonitrile]
6.00 to 7.00 | Cc1cn2cc(-c3cc(F)c4c(=O)n(C5CCOC5)cnc4c3)cc(C#N)c2n1 (stereo in doubt) [Compound 500, (S)-6-(5-fluoro-4-oxo-3-(tetrahydrofuran-3-yl)-3,4-dihydroquinazolin-7-yl)-2-methylimidazo[1,2-a]pyridine-8-carbonitrile]
5.00 to 6.00 | Cc1cn2nc(-c3ccc4c(=O)n(C5CCNCC5)cc(C)c4c3)cc(C)c2n1 [Compound 381, 6-{2,8-dimethylimidazo[1,2-b]pyridazin-6-yl}-4-methyl-2-(piperidin-4-yl)isoquinolin-1-one]
5.00 to 6.00 | Cc1cn2cc(-c3cc(F)c4c(=O)n(C5CCNCC5)ccc4c3)cc(C#N)c2n1 [Compound 383, 6-[8-fluoro-1-oxo-2-(piperidin-4-yl)isoquinolin-6-yl]-2-methylimidazo[1,2-a]pyridine-8-carbonitrile]
6.00 to 7.00 | Cc1cn2nc(-c3ccc4c(=O)n(C5CCNC6(CC6)C5)ccc4c3)cc(C)c2n1 (stereo not drawn) [Compound 384]
6.00 to 7.00 | Cc1cn2nc(-c3cc(C#N)c4c(=O)n(C5CCNC6(CC6)C5)ccc4c3)cc(C)c2n1 (stereo not drawn) [Compound 387]
